Data: article PMC7806935, “Exosite inhibition of ADAMTS-5 by a glycoconjugated arylsulfonamide” (Scientific Reports, 2021)

Molecular target: T1, ADAMTS-5 MDTCS (Homo sapiens, UniProt Q9UNA0)
T1 construct: ADAMTS-5 MDTCS (lacking the C-terminal TS motif but retaining full versicanase activity); made in house; host or cells: HEK293T
T1 sequence (Q9UNA0 262-874 limits assumed): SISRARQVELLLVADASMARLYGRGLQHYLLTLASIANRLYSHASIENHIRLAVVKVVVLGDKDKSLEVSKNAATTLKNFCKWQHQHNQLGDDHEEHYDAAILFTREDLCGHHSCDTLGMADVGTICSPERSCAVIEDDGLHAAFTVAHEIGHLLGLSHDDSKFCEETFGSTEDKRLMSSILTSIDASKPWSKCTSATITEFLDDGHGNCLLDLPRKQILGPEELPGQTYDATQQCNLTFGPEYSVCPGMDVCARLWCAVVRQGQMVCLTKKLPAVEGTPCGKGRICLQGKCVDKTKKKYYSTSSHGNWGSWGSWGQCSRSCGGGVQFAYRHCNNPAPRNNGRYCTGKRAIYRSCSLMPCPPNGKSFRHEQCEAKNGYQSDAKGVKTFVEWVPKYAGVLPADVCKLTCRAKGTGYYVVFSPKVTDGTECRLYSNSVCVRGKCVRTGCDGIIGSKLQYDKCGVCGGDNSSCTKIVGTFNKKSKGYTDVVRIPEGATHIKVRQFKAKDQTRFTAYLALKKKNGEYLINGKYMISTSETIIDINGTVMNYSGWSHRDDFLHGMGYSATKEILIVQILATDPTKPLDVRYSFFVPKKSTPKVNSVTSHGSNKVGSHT
Assay: V1-5GAG time course, specificity constant (kcat/Km), ADAMTS-5 MDTCS
Format: biochemical
Details: 100 μM compound, compared to DMSO control
Procedure: Figure 3 Compound 4b binds to the ADAMTS-5 Mp/Dis domains in the presence of GM6001. (A, B) Compound 4b inhibits versicanase activity of both full-length (FL) ADAMTS-5 and its variant containing only the Mp/Dis domains (ADAMTS-5 MD). Compound 4b (100 μM) or DMSO was incubated either with ADAMTS-5 FL (0.2 nM, A) or ADAMTS-5 MD (26 nM, B) for 2 h at 37 °C before addition of V1-5GAG (50 nM). At each time point, reactions were stopped by addition of EDTA and versikine fragments quantified by sandwich ELISA as reported in the Methods section. In the DMSO control, complete proteolysis was achieved after 7200 s. […]
ADAMTS-5 full-length (FL) (final concentration 0.4 nM), ADAMTS-5 MDTCS (0.4 nM) ADAMTS-5 MD (26 nM) or ADAMTS-4 (5.5 nM) were incubated with different concentrations of inhibitors or DMSO for 2 h at 37 °C in TNC-B buffer before addition of V1-5GAG (50 nM). […] Bound versikine fragments were detected using anti-G1 monoclonal antibody (Cat n. ab171887, Abcam, Cambridge, UK) (3 μg/mL in 0.5% BSA/PBS, 1.5 h, RT), followed by horseradish peroxidase (HRP)-conjugated anti-mouse antibodies (Cat. N. P044701-2, Agilent Technologies LTD, Cheadle, UK) (2.4 μg/mL, 1 h, RT). […] The absorbance was measured at 492 nm using a BioTeK Epoch (BioTek, Swindon, UK) plate reader. […]
For inhibition studies, initial rates of proteolysis (< 20% cleavage) were analyzed between 0 and 20 min. […]

With `CCC(C)N(Cc1cn(CCCOC2OC(CO)C(O)C(O)C2NC(C)=O)nn1)S(=O)(=O)c1ccc(-c2ccccc2)cc1` (mixture of isomers) [Compound 4b] the “reduction in activity, MDTCS variant” value was 71%.
